Measured values reported in patent US20240285808A1, “MOLECULAR PROBES FOR IN VIVO DETECTION OF ALDEHYDES” (The General Hospital Corporation, priority 2021, published 2024).

Key:
[1] = system: liver of CCl4 injured mice; type: in vivo, mouse; settings: CCl4 injured mice
Protocol: CCl4 Liver Fibrosis Model:
Male C57BL/6 mice (Charles River Laboratories, Wilmington, MA) were treated with carbon tetrachloride for 12 weeks (0.1 ml of 20% CCl4 in olive oil the first week, 30% the second week, and 40% from weeks 3-12) by oral gavage, 2-3 times per week. Control mice were fed vehicle (olive oil) only.
A total of 53 C57BL/6 mice were included to study CCl4 induced hepatic fibrosis: • A. CCl4 for 12 weeks (n=20). Each mouse was imaged with probe 1 and then imaged again 24 hours later with probe 2. Probe 1 and Probe 2 were randomly chosen from GdDOTA, GdCHyd, Mn-12, Gd-9 and Gd-10. • B. Vehicle treated control (n=20). Each mouse was imaged with probe 1 and then imaged again 24 hours later with probe 2. Probe 1 and Probe 2 were randomly chosen from GdDOTA, Mn-12, GdCHyd, Gd-9, Gd-10. • C. CCl4 for 12 weeks (n=3, another 3 pair-wise comparison have been done in group A). Each mouse was imaged with probe 1 and then imaged again 24 hours later with probe 2. […] Each mouse was imaged with probe 1 and then imaged again 24 hours later with probe 2. Probe 1 and Probe 2 were randomly choosing from Gd-9 and Gd-10. • E. CCl4 for 12 weeks (n=3). Each mouse was imaged with Gd-9. After 24 hours, the same mouse was first injected with 1000 μmol/kg of Yb-9 and then injected with 100 μmol/kg of Gd-9 15 min after the Yb-9 injection.
Animals were anesthetized with isoflurane (1-2%) and placed in a specially designed cradle with body temperature maintained at 37° C. The inhaled isoflurane level was adjusted to maintain a respiration rate of 60±5 breaths per minute. The tail vein was cannulated for intravenous (i.v.) delivery of the contrast agent while the animal was positioned in the scanner. Imaging was performed at 4.7 T using a small bore animal scanner with a custom-built volume coil. Mice were imaged with a dose of 100 μmol/kg from 30 mM stock solution of Gd or Mn complex.
For mice liver imaging, a series of baseline images (3D T1 weighted fast low angle shot magnetic resonance imaging (FLASH)) were first acquired (repetition time/echo time=15/2 ms; flip angle, 30°; field of view, 48×30 mm^2; matrix size, […]; slice thickness, 0.25 mm; acquisition time, 3 minutes 20 seconds), then a bolus of Gd or Mn complex was administered i.v. and imaging performed for a period of 45 min p.i. with the repetition acquisition of 3D T1 weighted FLASH sequences. Following the imaging session, animals were sacrificed (75 min p.i.) and liver tissue was subjected to histopathologic analysis.
For liver imaging analysis, a region of interest (ROI) was manually traced encompassing the liver parenchyma while avoiding major blood vessels. A second ROI was placed on the dorsal muscle visible in the same image slice to quantify the signal intensity in the muscle for comparison. Seven ROIs were placed in the field of view without any tissue (air) to measure the variation in background signal. More than 20 axial slices per mouse across the entire liver were analyzed in this fashion. […] Contrast to noise ratio (CNR) was calculated by measuring the difference in signal intensity (SI) between liver and muscle and normalizing to the standard deviation of the signal in the air, eq 21. ΔCNR was calculated by subtracting CNR measured prior to probe injection (CNRPre) from CNR measured after injection (CNRPost), eq 22. […]

[2] = system: lungs of bleomycin-injured mice; experiment: PET probe lung uptake in naïve and bleomycin-injured mice (gamma counter); type: in vivo, mouse; settings: 90 min post injection; for Lung uptake, Bleo: 14 days post bleomycin injury; for Lung uptake, Naïve: naïve mice
Protocol: C57Bl/6 adult male mice at 8 weeks of age (Jackson Laboratories, Barr Harbor, ME) received a single intratracheal dose of bleomycin, 1 units/kg body weight (50 μL total volume) (Fresenius Kabi, Lake Zurich, Il) as previously described in Desogere, P., et al. Optimization of a Collagen-Targeted PET Probe for Molecular Imaging of Pulmonary Fibrosis. J Nuc Med 58, 1991-1996 (2017).
Imaging and Biodistribution Study for Selectivity of Allysine-Reactive Probes In Vivo:
(§1) Bleomycin-injured mice at 14 days after injury were sedated and then injected with Compound 19, Compound 20, Gd-CHyd (Akam, E. A., et al. Improving the reactivity of hydrazine-bearing MRI probes for in vivo imaging of lung fibrogenesis. Chemical Science 11, 224-231 (2020)) formulated to contain an equal concentration of Eu-DOTA as a non-binding control probe. Animals were then euthanized at 30 minutes after injection. The lungs were harvested separately, along with blood, tail and liver. Each sample was analyzed by ICP-MS for gadolinium and europium content, and the lungs were also assessed for hydroxyproline content. Selectivity is reported as the ratio of Gd to Eu. All animals were dosed via tail vein injection at 100 nmol/g body weight from 30 mM solutions of gadolinium probes with 30 mM Eu-DOTA as determined by ICP-MS. For PET probes, Compounds 1-8 were radiolabeled with either ^68Ga or ^64Cu and the dose was delivered as a bolus injection through tail vein. Animals were euthanized 90 min post injection and their organs and tissues were harvested and counted using a gamma counter. For an imaging study with a PET tracer, animals were injected inside PET/MRI scanner and scanned dynamically for 60 min under anesthesia. The animals were euthanized 90 min post injection and their organs and tissues were counted using a gamma counter. The biodistribution of Mn-15, Mn-16, Mn-17, and Mn-18 was determined by injecting a mixture of ^52/nat complex into naïve mice and activity in each tissue were measured 24 hours post injection.

[3] = system: lungs of bleomycin-injured mice; experiment: ^68Ga-7 PET/MRI imaging and organ counts in bleomycin-injured and naïve mice; type: in vivo, mouse; settings: for probe uptake in lungs, PET scans: 55 min p.i.; for probe uptake in lungs, organ counts: 90 min p.i.
Protocol: as §1
Probe ^68Ga-7 was synthesized in 5 steps. Male C57BL/6 mice were intratracheally instilled with bleomycin (1.2 U/kg) and imaged after 14 days when allysine levels peak in the lung. Bleomycin injured mice or age-matched controls were placed in a micro-PET/MRI scanner and administered ^68Ga-7 as a bolus via the lateral tail vein and dynamically imaged for 60 minute. At 90 min p.i. animals were euthanized, and their organs were harvested for gamma counting. After gamma counting, lungs were flash-frozen and later analyzed for hydroxyproline (total collagen, fibrosis measure) and allysine content.

[4] = target: bovine serum albumin (BSA) (Bos taurus, UniProt P02769); experiment: Relaxivity measurements with BSA; type: binding; settings: 1.4 T, 37° C., BSA 10 mg/mL
Sequence of bovine serum albumin (BSA) (P02769 25-607): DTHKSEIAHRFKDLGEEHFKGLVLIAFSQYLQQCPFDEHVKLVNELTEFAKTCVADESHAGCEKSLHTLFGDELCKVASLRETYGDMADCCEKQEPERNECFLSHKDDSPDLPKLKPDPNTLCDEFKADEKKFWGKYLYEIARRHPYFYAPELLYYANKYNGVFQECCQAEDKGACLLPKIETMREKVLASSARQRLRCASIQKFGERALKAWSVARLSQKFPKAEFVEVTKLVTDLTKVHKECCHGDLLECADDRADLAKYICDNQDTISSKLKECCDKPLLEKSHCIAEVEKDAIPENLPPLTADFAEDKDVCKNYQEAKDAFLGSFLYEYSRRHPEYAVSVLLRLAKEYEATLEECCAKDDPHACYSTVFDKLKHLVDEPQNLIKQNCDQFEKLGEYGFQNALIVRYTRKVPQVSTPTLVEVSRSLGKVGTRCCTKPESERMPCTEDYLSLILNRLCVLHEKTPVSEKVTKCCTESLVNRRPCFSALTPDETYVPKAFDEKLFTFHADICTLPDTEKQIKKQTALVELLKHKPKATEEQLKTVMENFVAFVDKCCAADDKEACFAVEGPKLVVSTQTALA
Protocol: (§2) BSA-ALD (10 mg/mL) or BSA (10 mg/mL) were treated for 24 hours at 37° C. with the corresponding Gd or Mn complex at a range of concentrations (0.01-0.2 mM), with a total volume of 300 μL maintained for all samples. After 24 hours, an aliquot of the solution (50 μL) was used for longitudinal (T1) relaxation measurements, recorded using a Bruker mq60 Minispec at 1.41 T and 37° C. Longitudinal (T1) relaxation times were measured via an inversion recovery experiment using 10 inversions of duration ranging between 0.05×T1 and 10×T1. Solutions (concentration range: 0.1 mM-1.0 mM) in PBS were run in parallel. To measure the relaxivity of BSA-bound species, sodium cyanoborohydride (10 mg) was added to the solution to irreversibly bind the probe to the protein. After a further 2h incubation at 37° C., protein-bound and protein-free solutions were separated by ultrafiltration. Then 200 μL PBS was added to the residue to dissolve the protein. Longitudinal (T1) relaxation times for the bounded species were measured using a Bruker mq60 Minispec at 1.41 T and 37° C. After the measurement, concentration of corresponding metal ion (Gd/Mn) in the residue and filter were both determined using an Agilent 8800 ICP-MS system. Relaxivity (r1) was determined from the slope of a plot of 1/T1 vs metal concentration for 5 concentrations.

[5] = Relaxivity measurements in PBS; type: physicochemical; settings: 1.4 T, 37° C.
Protocol: as §2

[6] = target: T1, BSA-ALD (oxidized bovine serum albumin containing allysine aldehyde groups) (Bos taurus, UniProt P02769); experiment: Relaxivity measurements with BSA-Ald; type: binding; settings: 1.4 T, 37° C., BSA-Ald 10 mg/mL
T1 construct: made in house; host or cells: no expression host: BSA oxidised chemically with sodium ascorbate, ferric chloride and H2O2, then desalted on PD-10
T1 sequence (P02769 25-607): as above
Protocol: Preparation of Allysine Containing Bovine Serum Albumin, BSA-ALD:
To a solution of bovine serum albumin (BSA) (100 mg) dissolved in phosphate buffered saline (4 mL, pH 7.4, 0.25 mM), sodium ascorbate (20 mg), ferric chloride (120 μL, 10 mM) and 20 μL H2O2 (30% w) were added. The reaction was stirred at 37° C. for 24 hours, and sodium ascorbate (20 mg) was added repeatedly every 8 hours. After the reaction, protein was purified using PD-10 Sephadex G25 desalting columns (GE Healthcare), eluted with PBS. Protein concentration was assessed using the ‘BCA Protein Assay Kit’ (Thermo Scientific). Protein carbonyl concentration was determined by ‘Protein Carbonyl Content Assay Kit’ (Sigmal-Aldrich).
Alternatively, preparation of BSA^Ald and binding of Gd^3+ probe to protein was carried out according to modified procedures. To a solution of bovine serum albumin (BSA) (100 mg) dissolved in phosphate buffered saline (4 mL, pH 7.4, 0.25 mM) was added sodium ascorbate (20 mg), ferric chloride (120 μL, 10 mM) and 20 μL H2O2 (30% w). The reaction was stirred at 37° C. for 24 h, and sodium ascorbate (20 mg) was added repeatedly every 8 h. After 24 h, the protein was purified using PD-10 Sephadex G25 desalting columns (GE Healthcare), eluted with PBS. Protein concentration was assessed using the ‘Micro BCA Protein Assay Kit’ (Thermo Scientific, 23235). Protein carbonyl concentration was determined by ‘Protein Carbonyl Content Assay Kit’ (Sigma-Aldrich, MAK094-1KT). […] The protein solutions were kept at a concentration of 20 mg/mL for further use.
as §2

With NN1CCN(C(=O)CCC(C(=O)[O-])N2CCN(CC(=O)[O-])CCN(CC(=O)[O-])CCN(C(CCC(=O)N3CCN(N)CC3)C(=O)[O-])CC2)CC1.[Yb+3] (stereo not shown) [Yb-9] the “blocking of Gd-9 liver MRI enhancement” value ([1]; 10-fold dose (1000 μmol/kg) 15 minutes before Gd-9) was “completely eliminated liver MRI enhancement with Gd-9”.
For NC(Cn1cccc1)C(=O)NCCOCCOCCOCCNC(=O)CN1CCN(CC(=O)[O-])CCN(CC(=O)[O-])CC1.[64Cu+2] (stereo not shown) [^64Cu-2], the “Lung uptake, Bleo” value [2] was 0.42 % ID/g and the “Lung uptake, Naïve” value [2] was 0.26 % ID/g.
With O=C([O-])CN1CCN(CC(=O)[O-])CCN(CC(=O)NCCOCCOCCOCCNC(=O)CN2C(=O)CSC2=S)CC1.[64Cu+2] [^64Cu-4] the “Lung uptake, Bleo” value [2] was 0.66 % ID/g and the “Lung uptake, Naïve” value [2] was 0.38 % ID/g.
With NN1CCN(C(=O)CCOCCOCCOCCOCCNC(=O)CN2CCN(CC(=O)[O-])CCN(CC(=O)[O-])CC2)CC1.[68Ga+3] [^68Ga-1] the “Lung uptake, Bleo” value [2] was 0.99 % ID/g and the “Lung uptake, Naïve” value [2] was 0.27 % ID/g.
With NC(Cn1cccc1)C(=O)NCCOCCOCCOCCNC(=O)CN1CCN(CC(=O)[O-])CCN(CC(=O)[O-])CC1.[68Ga+3] (stereo not shown) [^68Ga-2] the “Lung uptake, Bleo” value [2] was 0.96 % ID/g and the “Lung uptake, Naïve” value [2] was 0.45 % ID/g.
With Cc1cc(O)n(CC(=O)NCCOCCOCCOCCNC(=O)CN2CCN(CC(=O)[O-])CCN(CC(=O)[O-])CC2)n1.[68Ga+3] [^68Ga-3] the “Lung uptake, Bleo” value [2] was 2.13 % ID/g and the “Lung uptake, Naïve” value [2] was 0.82 % ID/g.
For O=C([O-])CN1CCN(CC(=O)[O-])CCN(CC(=O)NCCOCCOCCOCCNC(=O)CN2C(=O)CSC2=S)CC1.[68Ga+3] [^68Ga-4], the “Lung uptake, Bleo” value [2] was 0.61 % ID/g and the “Lung uptake, Naïve” value [2] was 0.24 % ID/g.
In the case of NNC(=O)C(N)CCC(=O)NCCOCCOCCOCCNC(=O)CN1CCN(CC(=O)[O-])CCN(CC(=O)[O-])CC1.[68Ga+3] (stereo not shown) [^68Ga-5], the “Lung uptake, Bleo” value [2] is reported as 0.88 % ID/g and the “Lung uptake, Naïve” value [2] is reported as 0.30 % ID/g.
In the case of CNCCC1=NN(CC(=O)NCCOCCOCCOCCNC(=O)CN2CCN(CC(=O)[O-])CCN(CC(=O)[O-])CC2)C(=O)C1.[68Ga+3] [^68Ga-6], the “Lung uptake, Bleo” value [2] is reported as 1.32 % ID/g and the “Lung uptake, Naïve” value [2] is reported as 0.84 % ID/g.
With NNC(CCC(=O)NCCOCCOCCOCCNC(=O)CN1CCN(CC(=O)[O-])CCN(CC(=O)[O-])CC1)C(=O)O.[68Ga+3] (stereo not shown) [^68Ga-7] the “probe uptake in lungs, PET scans” value ([3]; Bleomycin injured mice (n = 5)) was 0.51 % ID/cc, the “probe uptake in lungs, organ counts” value ([3]; Bleomycin injured mice (n = 5)) was 2.65 % ID/g and the “probe uptake in lungs, PET scans” value ([3]; Naïve mice (n = 4)) was 0.23 % ID/cc. For the same compound, the “probe uptake in lungs, organ counts” value ([3]; Naïve mice (n = 4)) was 0.886 % ID/g, the “uptake in bleomycin injured lung compared to ^68Ga-NODAGA-indole” value ([3]; mouse, in vivo) was “twice the uptake” and the “blood clearance and elimination” value ([3]; naïve animal) was “rapid blood clearance”.
With GdDOTA [reference compound] the “liver enhancement” value ([1]; 45 min p.i.) was “no significant liver enhancement”, the “ΔCNR (liver to muscle)” value ([1]; 45 min post injection, 100 μmol/kg i.v., group mean) was 0.1 ± 0.2 and the “r1, +BSA” value [4] was 4.0 mM⁻¹ s⁻¹. The “r1, PBS” value [5] was 4.0 mM⁻¹ s⁻¹ and the “r1, +BSA-Ald” value [6] was 4.0 mM⁻¹ s⁻¹.
